Literature values, collected in patent publication US20150320795A1, “COMPOSITIONS AND METHODS COMPRISING POLYETHYLENE GLYCOL AND MAGNESIUM FOR TREATMENT OF NEURONAL INJURY” (priority 2012, published 2015).
Like-named read-outs stand apart in the source and are kept apart here.

Assays:
[1] = test system: brain injury; details: animals; U.S. application Ser. No. 11/418,153
[2] = previously published

SMILES: [Mg+2] [magnesium]
- effect on the loss of cognitive functions following brain injury [1]: no effect
- serum magnesium half-lives ([2]; brain injured patients after a 24-hour infusion period): ~6 h
- serum magnesium half-lives ([2]; healthy volunteers, after one infusion): 1.25 to 4.75 h
- serum magnesium half-lives ([2]; patients, pre-eclampsia): 5.2 h
